From patent US6558952B1, “Treatment for diabetes” (Waratah Pharmaceuticals, Inc., priority 1992, dated 2003)
Marks after values point to notes of the source that are not given here.

System: normal Wistar rats
Assay: Pancreatic insulin content in normal rats treated with TGF-α and gastrin
Assay type: in vivo, rat
Settings: i.p. 0.8 μg/day each for 10 days, n=5, mean +/− SEM
Method: Animals. Mice, FVB and CD strain, were obtained from Taconic Farms, Inc., Germantown, N.Y. The TGF-α transgenic line MT-42 used, which expresses high levels of TGF-α from a metallothionein promoter, is described in Jhappan et al, Cell, 61:1137-1146 (1990). Normal Wistar and Zucker rats were allowed normal chow ad libidum with free access to water and were acclimatized for one week prior to initiation of each study. Freshly prepared streptozotocin at a dose of 80 mg/kg body weight was administered by I.V. five to seven days after induction of diabetes, the rats were randomly allocated into groups for subsequent treatment. Hormones, TGF-α and rat gastrin were reconstituted in sterile normal saline containing 0.1% BSA. […]
At the end of the study period (10 days), all animals were sacrificed and samples of pancreas taken as follows: five biopsy specimens (1-2 mg) of pancreatic tissue were taken from separate representative sites in each rat pancreas and immediately snap frozen in liquid nitrogen for analysis of insulin content. […] Pancreatic insulin content values were corrected according to protein content and finally expressed as μg insulin/mg pancreatic protein. All values calculated as mean +/− SEM and statistical significance evaluated using Student's 2-sample t-test.

“TGF-α: recombinant Human TGF-α, an EGF receptor ligand, reconstituted in sterile saline containing 0.1% BSA” was tested. Which “Pancreatic Insulin Content” value did it give?
The value was 30.4 +/− 7.4* μg insulin/mg protein.
